Measured values as given in patent US9593156B2 (priority 2012, dated 2017).
“And” between values parts separate entries of the source, which are not always exact repeats. Identical values can stand only once. Like-named read-outs stand apart in the source and are kept apart here. Ends that are not written are not given here.

Key:
IGF-1 receptor [1] = molecular target: T1, IGF-1 receptor (Homo sapiens, UniProt P08069); assay: IGF-1 receptor phosphorylation assay in receptor transfected HEK293 cells; assay type: cell-based; set-up: expressed in transfected cells; host or cells: HEK293
insulin receptor [2] = molecular target: T2, insulin receptor (Homo sapiens, UniProt P06213); assay: Insulin receptor phosphorylation assay in receptor transfected HEK293 cells; assay type: cell-based; set-up: expressed in transfected cells; host or cells: HEK293
insulin receptor [3] = molecular target: T2, insulin receptor; assay: Insulin receptor competition binding assay (scintillation proximity); set-up: expressed in transfected cells; plasma membrane fragments
IGF-1 receptor [4] = molecular target: T1, IGF-1 receptor; assay: IGF-1 receptor competition binding assay (scintillation proximity); set-up: expressed in transfected cells; plasma membrane fragments
IGF-1 receptor [5] = molecular target: T1, IGF-1 receptor; assay: Receptor kinase activity (phosphorylation) assay, IGF-1 receptor; assay type: cell-based; set-up: expressed in transfected cells; host or cells: HEK293; details: for % Insulin Activity IGF-1 R: Table 12
[6] = molecular target: T3, type B insulin receptor (IR-B) (Homo sapiens, UniProt P06213); assay: Receptor kinase activity (phosphorylation) assay, type B insulin receptor; assay type: cell-based; details: for % Insulin Activity IR-B: Table 12
T3 construct: expressed in transfected cells; host or cells: HEK293

[7] = molecular target: T4, type A insulin receptor (IR-A) (Homo sapiens, UniProt P06213); assay: Receptor kinase activity (phosphorylation) assay, type A insulin receptor; assay type: cell-based; details: for % Insulin Activity IR-A: Table 12
T4 construct: expressed in transfected cells; host or cells: HEK293

[8] = Table 9, IGF-1 receptor versus insulin receptor

CC[C@H](C)[C@H](NC(=O)CN)C(=O)N[C@H](C(=O)N[C@@H](CC(=O)O)C(=O)N[C@@H](CCC(=O)O)C(=O)N[C@H]1CSSC[C@@H]2NC(=O)[C@H](CO)NC(=O)[C@H](C)NC(=O)[C@H](Cc3c[nH]cn3)NC(=O)[C@H](CSSC[C@H](NC(=O)[C@H](CC(C)C)NC(=O)[C@H](Cc3c[nH]cn3)NC(=O)[C@H](CCC(=O)O)NC(=O)[C@@H]3CCCN3C(=O)CN)C(=O)NCC(=O)N[C@@H](C)C(=O)N[C@@H](CC(=O)O)C(=O)N[C@@H](CC(C)C)C(=O)N[C@@H](C(C)C)C(=O)N[C@@H](CC(=O)O)C(=O)N[C@@H](C)C(=O)N[C@@H](CC(C)C)C(=O)N[C@@H](Cc3ccc(O)cc3)C(=O)N[C@@H](CC(C)C)C(=O)N[C@@H](C(C)C)C(=O)N[C@H](C(=O)NCC(=O)N[C@@H](CC(=O)O)C(=O)N[C@@H](C)C(=O)NCC(=O)N[C@@H](Cc3ccccc3)C(=O)N[C@@H](Cc3ccc(O)cc3)C(N)=O)CSSC[C@@H](C(=O)N[C@@H](CC(N)=O)C(=O)O)NC(=O)[C@H](Cc3ccc(O)cc3)NC(=O)[C@H](CCSC)NC(=O)[C@H](CCC(=O)O)NC(=O)[C@H](CC(C)C)NC(=O)[C@H](CCCNC(=N)N)NC(=O)[C@H](CCCNC(=N)N)NC(=O)[C@H](CC(C)C)NC(=O)[C@H](CC(=O)O)NC2=O)NC1=O)C(C)C
% IGF (IGF-1 receptor [1]): 7.7%
Selective Ratio (IGF-1 receptor [1]): 32.54
% Insulin (insulin receptor [2]): 360% and 614%
% insulin (in test) (insulin receptor [3]): 1171.4%
% IGF-1 (in test) (IGF-1 receptor [4]): 2.3%
Ratio (IGF-1 receptor [4]): 190.3

CC[C@H](C)[C@H](NC(=O)CN)C(=O)N[C@H](C(=O)N[C@@H](CC(=O)O)C(=O)N[C@@H](CCC(=O)O)C(=O)N[C@H]1CSSC[C@@H]2NC(=O)[C@H](CO)NC(=O)[C@H](CCCNC(=N)N)NC(=O)[C@H](Cc3ccccc3)NC(=O)[C@H](CSSC[C@H](NC(=O)[C@H](CC(C)C)NC(=O)[C@H](Cc3c[nH]cn3)NC(=O)[C@H](CCC(=O)O)NC(=O)[C@@H]3CCCN3C(=O)CN)C(=O)NCC(=O)N[C@@H](C)C(=O)N[C@@H](CC(=O)O)C(=O)N[C@@H](CC(C)C)C(=O)N[C@@H](C(C)C)C(=O)N[C@@H](CC(=O)O)C(=O)N[C@@H](C)C(=O)N[C@@H](CC(C)C)C(=O)N[C@@H](Cc3ccc(O)cc3)C(=O)N[C@@H](CC(C)C)C(=O)N[C@@H](C(C)C)C(=O)N[C@H](C(=O)NCC(=O)N[C@@H](CC(=O)O)C(=O)N[C@@H](CCCNC(=N)N)C(=O)NCC(=O)N[C@@H](Cc3ccccc3)C(=O)N[C@@H](Cc3ccc(O)cc3)C(N)=O)CSSC[C@@H](C(=O)N[C@@H](C)C(N)=O)NC(=O)[C@H](Cc3ccc(O)cc3)NC(=O)[C@H](CCSC)NC(=O)[C@H](CCC(=O)O)NC(=O)[C@H](CC(C)C)NC(=O)[C@H](CCCNC(=N)N)NC(=O)[C@H](CCCNC(=N)N)NC(=O)[C@H](CC(C)C)NC(=O)[C@H](CC(=O)O)NC2=O)NC1=O)C(C)C [IGF-1 A:B (H5D10Y16L17) DPI]
% IGF (IGF-1 receptor [1]; Table 10, IGF-1 Receptor): 7.1%
% insulin (in test) (insulin receptor [3]; Table 9, Insulin Receptor): 479.0%
% IGF-1 (in test) (IGF-1 receptor [4]; Table 9, IGF-1 Receptor): 11.2%
Ratio (IGF-1 receptor [4]; [8]): 29.1

CC[C@H](C)[C@H](NC(=O)CN)C(=O)N[C@H](C(=O)N[C@@H](CC(=O)O)C(=O)N[C@@H](CCC(=O)O)C(=O)N[C@H]1CSSC[C@@H]2NC(=O)[C@H](CO)NC(=O)[C@H](CCCNC(=N)N)NC(=O)[C@H](Cc3ccccc3)NC(=O)[C@H](CSSC[C@H](NC(=O)[C@H](CC(C)C)NC(=O)[C@@H](NC(=O)[C@H](CCC(=O)O)NC(=O)[C@@H]3CCCN3C(=O)CN)[C@@H](C)O)C(=O)NCC(=O)N[C@@H](C)C(=O)N[C@@H](CC(=O)O)C(=O)N[C@@H](CC(C)C)C(=O)N[C@@H](C(C)C)C(=O)N[C@@H](CC(=O)O)C(=O)N[C@@H](C)C(=O)N[C@@H](CC(C)C)C(=O)N[C@@H](Cc3ccc(O)cc3)C(=O)N[C@@H](CC(C)C)C(=O)N[C@@H](C(C)C)C(=O)N[C@H](C(=O)NCC(=O)N[C@@H](CC(=O)O)C(=O)N[C@@H](CCCNC(=N)N)C(=O)NCC(=O)N[C@@H](Cc3ccccc3)C(=O)N[C@@H](Cc3ccc(O)cc3)C(N)=O)CSSC[C@@H](C(=O)N[C@@H](C)C(=O)O)NC(=O)[C@H](Cc3ccc(O)cc3)NC(=O)[C@H](CCSC)NC(=O)[C@H](CCC(=O)O)NC(=O)[C@H](CC(C)C)NC(=O)[C@H](CCCNC(=N)N)NC(=O)[C@H](CCCNC(=N)N)NC(=O)[C@H](CC(C)C)NC(=O)[C@H](CC(=O)O)NC2=O)NC1=O)C(C)C [IGF-1 A:B(D10Y16L17) DPI A-COOH]
% IGF (IGF-1 receptor [1]; Table 10, IGF-1 Receptor): 111.538%
% Insulin (insulin receptor [2]; Table 10, Insulin Receptor): 1575%
% IGF-1 (in test) (IGF-1 receptor [4]; Table 9, IGF-1 Receptor): 7.7%

CC[C@H](C)[C@H](NC(=O)CN)C(=O)N[C@H](C(=O)N[C@@H](CC(=O)O)C(=O)N[C@@H](CCC(=O)O)C(=O)N[C@H]1CSSC[C@@H]2NC(=O)[C@H](CO)NC(=O)[C@H](CCCNC(=N)N)NC(=O)[C@H](Cc3ccccc3)NC(=O)[C@H](CSSC[C@H](NC(=O)[C@H](CC(C)C)NC(=O)[C@@H](NC(=O)[C@H](CCC(=O)O)NC(=O)[C@@H]3CCCN3C(=O)CN)[C@@H](C)O)C(=O)NCC(=O)N[C@@H](C)C(=O)N[C@@H](CCC(=O)O)C(=O)N[C@@H](CC(C)C)C(=O)N[C@@H](C(C)C)C(=O)N[C@@H](CC(=O)O)C(=O)N[C@@H](C)C(=O)N[C@@H](CC(C)C)C(=O)N[C@@H](Cc3ccc(O)cc3)C(=O)N[C@@H](CC(C)C)C(=O)N[C@@H](C(C)C)C(=O)N[C@H](C(=O)NCC(=O)N[C@@H](CC(=O)O)C(=O)N[C@@H](CCCNC(=N)N)C(=O)NCC(=O)N[C@@H](Cc3ccccc3)C(=O)N[C@@H](Cc3ccc(O)cc3)C(=O)N[C@@H](Cc3ccccc3)C(=O)N[C@@H](CC(N)=O)C(=O)N[C@@H](CCCCN)C(=O)N3CCC[C@H]3C(=O)N[C@H](C(=O)N[C@@H](CCC(=O)O)C(=O)N[C@@H](CCC(=O)O)C(=O)O)[C@@H](C)O)CSSC[C@@H](C(=O)N[C@@H](C)C(N)=O)NC(=O)[C@H](Cc3ccc(O)cc3)NC(=O)[C@H](CCSC)NC(=O)[C@H](CCC(=O)O)NC(=O)[C@H](CC(C)C)NC(=O)[C@H](CCCNC(=N)N)NC(=O)[C@H](CCCNC(=N)N)NC(=O)[C@H](CC(C)C)NC(=O)[C@H](CC(=O)O)NC2=O)NC1=O)C(C)C [IGF-1 A:B(E10 Y16L17)-E31E3 2B-COOH]
% Insulin (insulin receptor [2]; Table 10, Insulin Receptor): 18.1% and 31.7%
% insulin (in test) (insulin receptor [3]; Table 9, Insulin Receptor): 36.5%
% native insulin activity (0.6 nM) (insulin receptor [3]; Table 9, Insulin Receptor): 50.0%
% IGF-1 (in test) (IGF-1 receptor [4]; Table 9, IGF-1 Receptor): 3.0%
Ratio (IGF-1 receptor [4]; [8]): 14.3

CC[C@H](C)[C@H](NC(=O)CN)C(=O)N[C@H](C(=O)N[C@@H](CC(=O)O)C(=O)N[C@@H](CCC(=O)O)C(=O)N[C@H]1CSSC[C@@H]2NC(=O)[C@H](CO)NC(=O)[C@H](CCCNC(=N)N)NC(=O)[C@H](Cc3ccccc3)NC(=O)[C@H](CSSC[C@H](NC(=O)[C@H](CC(C)C)NC(=O)[C@H](Cc3c[nH]cn3)NC(=O)[C@H](CCC(=O)O)NC(=O)[C@@H]3CCCN3C(=O)CN)C(=O)NCC(=O)N[C@@H](C)C(=O)N[C@@H](CC(=O)O)C(=O)N[C@@H](CC(C)C)C(=O)N[C@@H](C(C)C)C(=O)N[C@@H](CC(=O)O)C(=O)N[C@@H](C)C(=O)N[C@@H](CC(C)C)C(=O)N[C@@H](Cc3ccc(O)cc3)C(=O)N[C@@H](CC(C)C)C(=O)N[C@@H](C(C)C)C(=O)N[C@H](C(=O)NCC(=O)N[C@@H](CC(=O)O)C(=O)N[C@@H](CCCNC(=N)N)C(=O)NCC(=O)N[C@@H](Cc3ccccc3)C(=O)N[C@@H](Cc3ccc(O)cc3)C(N)=O)CSSC[C@@H](C(=O)N[C@@H](C)C(N)=O)NC(=O)[C@H](Cc3ccc(O)cc3)NC(=O)[C@H](CC[S+](C)[O-])NC(=O)[C@H](CCC(=O)O)NC(=O)[C@H](CC(C)C)NC(=O)[C@H](CCCNC(=N)N)NC(=O)[C@H](CCCNC(=N)N)NC(=O)[C@H](CC(C)C)NC(=O)[C@H](CC(=O)O)NC2=O)NC1=O)C(C)C (stereo partly drawn) [IGF-1 A:B(H5D10Y16L17) (S═O) DPI]
% insulin (in test) (insulin receptor [3]; Table 9, Insulin Receptor): 316.0%

B2, A14-PEG10K di-PEGylated MIU-35 (GPEHLCGAELVDALYLVCGDRGFYGYGSSSRKAPQTGIVDECCFRSCDLK(PEG 10 kDa)RLENYCN; not fully specified (N-terminus); ends and bridges not checked; also: PEG10K at B2) [MIU-69]
% Insulin Activity IGF-1 R (IGF-1 receptor [5]): <0.1%
% Insulin Activity IR-B [6]: 0.5%
% Insulin Activity IR-A [7]: 1.0%

B2, B22-PEG10K di-PEGylated MIU-35 (GPEHLCGAELVDALYLVCGDK(PEG 10 kDa)GFYGYGSSSRKAPQTGIVDECCFRSCDLRRLENYCN; not fully specified (N-terminus); ends and bridges not checked; also: PEG10K at B2) [MIU-68]
% Insulin Activity IGF-1 R (IGF-1 receptor [5]): <0.1%
% Insulin Activity IR-B [6]: 0.1%
% Insulin Activity IR-A [7]: 0.4%

B2, C8-PEG10K di-PEGylated MIU-35 (GPEHLCGAELVDALYLVCGDRGFYGYGSSSRK(PEG 10 kDa)APQTGIVDECCFRSCDLRRLENYCN; not fully specified (N-terminus); ends and bridges not checked; also: PEG10K at B2) [MIU-67]
% Insulin Activity IGF-1 R (IGF-1 receptor [5]): <0.1%
% Insulin Activity IR-B [6]: 0.1%
% Insulin Activity IR-A [7]: 0.2%

B^1(A5H10Y16L17)25-C^1-A^1(H8N18N21) [Ala,B5]
IGF-1 R (IGF-1 receptor [5]): 2.5%
IR-B [6]: 5.7%

B^1(H5,10Y16L17A24)25-C^1-A^1(H8N18,N21) [Ala,B24]
IGF-1 R (IGF-1 receptor [5]): 0.3%
IR-B [6]: 0.4%
IR-A [7]: 0.1%

B^1(H5,10Y16L17R29)30-C^1des9-12-A^1(H8,N18,21) (GPEHLCGAHLVDALYLVCGDRGFYFNKRTGYGSSSRRGIVDECCHRSCDLRRLENYCN) [MIU-43]
IGF-1 R (IGF-1 receptor [5]; Table 14): 14.2%
IR-B ([6]; Table 14): 16.7%
IR-A ([7]; Table 14): 97.5%

GE5W-B^1(A5H10Y16L17)25-C^1-A^1(H8N18N21) [GE5W-Ala,B5]
IGF-1 R (IGF-1 receptor [5]): 0.3%
IR-B [6]: 2.3%
IR-A [7]: 8.6%
